From US10440955B2, “Methods comprising a biocidal polyamine” (Curza Global, LLC, priority 2013, dated 2019)
Converted amounts (≈) assume the structure as drawn. Structures can show the parent of a compound that is named as a salt. Where two headings read alike, the source gives them in different places.

Key:
[1] = system: A. baumannii; experiment: MIC, 96-well CAMHB, 10^5 to 10^2 CFU/mL in 24 hours; type: cell-based, Acinetobacter baumannii; details: Acinetobacter baumannii; Table 5; read-out: MIC (A. bumannii)
Experimental: To determine the MIC of polyamine compounds, the protocol described herein was used.
In brief, a 0.5 McFarland of each bacterial isolate was made. A 0.5 McFarland is a measure of turbidity in a liquid sample that contains approximately 1×10^∧8 CFU/mL. The 0.5 McFarland standard was diluted in cation adjusted Mueller Hinton Broth (CAMHB), and 50 μL of broth were added to a well of a 96-well plate. In addition, 50 μL of CAMHB that contained a desired concentration of antimicrobial were also added to the well for a final volume of 100 μL and a final concentration of approximately 5×10^4 CFU/well (which equated to approximately 5×10^5 CFU/mL). Each well contained a desired amount of polyamine compound in order to experimentally determine the MIC. Each 96-well plate was incubated at 37° C. for 24 hours. The contents of each well were plated on tryptic soy agar (TSA). TSA plates were incubated for 37° C. for 24 hours after which the number of CFU were counted and used to calculate the CFU/mL that remained after exposure to varying concentrations of compound. This procedure was repeated n=8 times for each concentration of antimicrobial.
A 0.5 McFarland of A. baumannii is made. A 0.5 McFarland is a measure of turbidity in a liquid sample that contains approximately 7.5×10^7 CFU/mL. The 0.5 McFarland standard is diluted in CAMHB and 50 μL of broth is added to a well of a 96-well plate. In addition, 50 μL of CAMHB that contains a desired concentration of antimicrobial is added to the well for a final volume of 100 μL and a final concentration of approximately 5×10^4 CFU/well (which equates to approximately 5×10^5 CFU/mL). Each well contains a desired amount of CZ compound in order to experimentally determine the MIC. Each 96-well plate is incubated at 37° C. for 24 hours. The contents of each well is plated on tryptic soy agar (TSA). TSA plates is incubated at 37° C. for 24 hours after which the number of CFUs is counted and used to calculate the CFU/mL that remain after exposure to varying concentrations of compound. This procedure is repeated n=8 times for each concentration of antimicrobial. […]

[2] = system: P. aeruginosa; experiment: as above; type: cell-based, Pseudomonas aeruginosa; details: Pseudomonas aeruginosa
Summary of the method: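 Broth microdilution in CAMHB with about 5×10^5 CFU/mL inoculum, incubated 24 h at 37 °C with graded polyamine compound concentrations. Surviving CFU/mL determined by plating each well on TSA for 24 h at 37 °C; n=8 per concentration.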

[3] = system: various bacterial cell cultures; experiment: Antimicrobial activity of polyamines in hydrogel on agar lawns; type: cell-based; details: 0.5% CZ compound in 0.5% sodium hyaluronate gel, 500 uL on TSA lawn, 37 C for 24 hours
Experimental: A 0.5 McFarland standard of each bacteria was made, then individual lawns of bacteria spread onto the surface of tryptic soy agar (TSA). 500 uL of the suspended gel were placed on the center of each lawn. Plates were incubated at 37 C for 24 hours, then imaged. Images of the resulting gels are shown in FIGS. 30A to 30I show the effects of the polyamines CZ-86, CZ-100, and CZ-110 on various bacterial cell cultures.
The hydrogel that was used for those images is a LifeCore gel with 1% sodium hyaluronate (1% Sodium Hyaluronate Solution Part #82). The CZ compound was suspended in water at 1% (w/w) concentration and combined with the LifeCore gel 1:1 for a final product that contained 0.5% sodium hyaluronate and 0.5% CZ compound.

[4] = system: MRSA; experiment: MIC, 96-well CAMHB, 10^5 to 10^2 CFU/mL in 24 hours; type: cell-based, Staphylococcus aureus; details: Staphylococcus aureus, MRSA, read-out: MIC (MRSA)
Summary of the method: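 Compound exposure was 24 h at 37 °C in CAMHB with an inoculum of ~5×10^5 CFU/mL from a 0.5 McFarland; eight replicates per concentration.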

[5] = system: MRSA; experiment: MIC against MRSA (as defined by CLSI); type: cell-based; details: Staphylococcus aureus, FIG. 25
Experimental: To determine the MIC of the polyamine chains alone and the synthesized compounds against MRSA and P. aeruginosa ATCC 27853, a modified protocol from the Clinical and Laboratory Standards Institute (CLSI) guideline M26-A was used. […] All data was collected using cation adjusted MHB for standardization.
As mentioned, MRSA and P. aeruginosa ATCC 27853 were grown on Columbia blood agar plates prior to experimentation. From the blood agar plates, a 0.5 McFarland standard was made of each isolate. This equated to approximately 5×10^7 cells/mL for the MRSA isolate and approximately 3×10^7 cells/mL for the P. aeruginosa ATCC 27853 isolate. Of the 0.5 McFarland stock solution, 50 μL were added to MHB. […] All tests were performed such that a final volume of 5 mL of MHB were obtained. This provided a final bacterial concentration of approximately 5×10^5 cells/mL.
Each sample was incubated in glass test tubes at 37° C. for 24 hours, then plated in duplicate on tryptic soy agar (TSA) using a 10-fold dilution series. TSA plates were further incubated 24 hours at 37° C. The number of colony forming units (CFU) that grew were counted in order to calculate the number of bacteria that were present per mL in the original MHB solution.

[6] = system: biofilms of MRSA; details: understanding of the inventors; no own test described; cited from earlier work
[7] = system: L-929 cells (ATCC CCL-1); experiment: Minimal Essential Media (MEM) Elution cytotoxicity test; type: cell-based; details: Table 9A
Summary of the method: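 L-929 cells (ATCC CCL-1) were seeded in multiwell plates and grown to roughly 80% confluence. Test article dilutions (1:2, 1:4, 1:8, 1:16) and control extracts were applied in triplicate and incubated 48±3 hours at 37±1° C. in 5±1% CO2. Wells were scored microscopically for morphological cytotoxicity on a 0–4 scale and averaged; Pass required grade not greater than 2 per USP <87>.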

[8] = system: human blood; experiment: Hemolysis test with diluted human blood (ISO 10993-4); type: cell-based
Description: Procedure: The PBS used in testing was calcium and magnesium free. The method has been validated using human blood from one donor. This is in compliance with ISO 10993-4 which states due to differences in blood activity, human blood should be used where possible. Furthermore, pooling unmatched human blood from multiple donors may cause red blood cell agglutination which in turn could cause hemolysis; this supports the use of a single donor.
The blood was drawn using vacutainers containing 0.1 M sodium citrate at a ratio of 9:1 (3.2% anticoagulant to blood). The blood in this test was used within four hours of blood draw. The collected blood was refrigerated until testing was performed.
A hemoglobin standard was diluted with Drabkin's reagent to give solutions at concentrations of 0.80, 0.60, 0.40, 0.30, 0.20, 0.10, 0.02, and 0.01 mg/ml. These solutions were allowed to stand at room temperature for a minimum of five minutes. The absorbance was read on a spectrophotometer at 540 nanometers (nm). A standard curve was determined with the absorbance values and the standard concentrations of hemoglobin.
Human blood was centrifuged at 700-800×g for 15 minutes. A 1 mL aliquot of the plasma was added into 1 mL of Drabkin's reagent, and placed at room temperature for a minimum of 15 minutes. The absorbance was read on a spectrophotometer at 540 nm. The hemoglobin concentration was determined from the standard curve and then multiplied by a factor of 2 to obtain the total plasma free hemoglobin. The plasma free hemoglobin was less than 2 mg/mL (actual value 0.221 mg/mL). A 20 μL aliquot of blood was added to 5 mL of Drabkin's reagent in duplicate and allowed to stand at room temperature for a minimum of 15 minutes. The absorbance was read on a spectrophotometer at 540 nm then multiplied by 251 to account for the dilution.
Based on the plasma hemoglobin and the blood absorbance against Drabkin's reagent, the blood was diluted out to 10±1 mg/mL with PBS. To verify the blood dilution, a 300 μL aliquot of this blood was added to 4.5 mL of Drabkin's reagent in triplicate and allowed to stand at room temperature for a minimum of 15 minutes. The absorbance was read on a spectrophotometer at 540 nm then multiplied by 16 to account for the dilution.
Glass test tubes were labeled appropriately. Both samples were prepared the same way. The samples were allowed to thaw prior to testing. To each test tube, 7 mL of the test article and 1 mL of the diluted blood were added. The controls consisted of the appropriate amount of control material, 7 mL of PBS and 1 mL of blood. Three tubes were prepared for each test article and control. The tubes were incubated at 37±2° C. for 3 hours±5 minutes. Tubes were gently inverted twice at 30 minute intervals throughout the incubation period. A non-hemolytic negative control, a hemolytic positive control and a PBS blank were included.
After incubation, test articles were centrifuged at 700-800×g for 15 minutes and 1 mL of the supernatant fluid was combined with 1 mL of Drabkin's reagent and allowed to stand at room temperature for a minimum of 15 minutes. Following the centrifugation phase, the supernatant of both test articles visually appeared clear and were particulate free. The PBS blank and the negative control supernatant visually appeared clear and were particulate free. The supernatant of the positive control visually appeared red and were particulate free. The test articles and controls were read at 540 nm in a spectrophotometer.
The hemolytic index (percent hemolysis) was interpreted using the following equation:
[formula] Where: Hemoglobin Released (mg/mL)=(Optical Density×X Coefficient+Constant)×16 Hemoglobin Present (mg/ml)=Diluted Blood 10±1 mg/mL
The corrected hemolytic index was calculated by subtracting the hemolytic index of the PBS blank solution from the hemolytic index of the test article and controls. […]

[9] = Table 5, read-out: MIC (P. aeruginosa)

SMILES: CCCCCCCCNCCCNCCCNCc1cc(CNCCCNCCCNCCCCCCCC)cc(OCCCNCC(C)C)c1 [CZ-110, N^1,N^1′-((5-(3-(isobutylamino)propoxy)-1,3-phenylene)bis(methylene))bis(N^3-(3-(octylamino)propyl)propane-1,3-diamine)]
- MIC [1]: < 50 µM
- MIC [2, 9]: < 50 µM
- zones of inhibition in bacterial lawns [3]: created zones of inhibition
- MIC ([4]; Table 5): < 50 µM

SMILES: NCCCNCc1cccc(CNCCCN)c1 [CZ-12]
- MIC [2, 9]: 50 to 100 µM (≈ 12.5 to 25 µg/mL)
- MIC ([4]; Table 5): > 100 µM
- MIC [5]: 300 µg/mL (≈ 1200 µM)

SMILES: O=CCCCC=O [glutaraldehyde, Glutaraldehyde, reference compound]
- biofilm dispersal effect (comparison) [6]: not seen
- Results Pass/Fail ([7]; 3.125 μg/mL): Pass (receives a passing score (Pass) if the reactivity grade is not greater than grade 2 or a mild reactivity)
- Results Pass/Fail ([7]; 6.25 μg/mL): Fail (a numerical grade greater than 2 is considered a cytotoxic effect, or a failing score (Fail))
- Results Pass/Fail ([7]; 12.5 μg/mL): Fail (a numerical grade greater than 2 is considered a cytotoxic effect, or a failing score (Fail))
- Results Pass/Fail ([7]; 25 μg/mL): Fail (a numerical grade greater than 2 is considered a cytotoxic effect, or a failing score (Fail))
- Results Pass/Fail ([7]; 1.563 (unit not given)): Pass (receives a passing score (Pass) if the reactivity grade is not greater than grade 2 or a mild reactivity)

SMILES: CCC(CC)COc1cc(CNCCCNCCCN)cc(CNCCCNCCCN)c1 [CZ-90, N^1,N^1′-((5-(2-ethylbutoxy)-1,3-phenylene)bis(methylene))bis(N^3-(3-aminopropyl)propane-1,3-diamine), hydrochloride salt]
- MIC ([2]; read-out: MIC (P. aeruginosa), Table 5): < 50 µM
- Average Hemolytic Index (% Hemolysis) [8]: 0.76 % Hemolysis
- Hemolytic Grade [8]: non-hemolytic
- difference between the hemolytic indexes of test article and negative control [8]: 0.00%
- Average Optical Density ([8]; 540 nm): 0.003
- Optical Density ([8]; 540 nm, three tubes, 37 ± 2° C., 3 hours): 0.003
- Corrected Hemolytic Index (% Hemolysis) ([8]; hemolytic index of the PBS blank subtracted): 0.00 % Hemolysis
- Hemolytic Index ([8]; three tubes): 0.764
- MIC [4]: < 50 µM

SMILES: CC(C)(C)CC(C)(C)c1ccc(OCCOCC[N+](C)(C)Cc2ccccc2)cc1 [benzethonium chloride]
- biofilm dispersal effect (comparison) [6]: not seen

SMILES: CCCCCCCCNCCCNCCCNCc1cccc(CNCCCNCCCNCCCCCCCC)c1 [CZ-100, N^1,N^1′-(1,3-phenylenebis(methylene))bis(N^3-(3-(octylamino)propyl)propane-1,3-diamine)]
- MIC [1]: < 50 µM
- MIC [2, 9]: < 50 µM
- zones of inhibition in bacterial lawns [3]: created zones of inhibition
- MIC ([4]; Table 5): < 50 µM
- Results Pass/Fail ([7]; 3.125 μg/mL): Pass (receives a passing score (Pass) if the reactivity grade is not greater than grade 2 or a mild reactivity)
- Results Pass/Fail ([7]; 6.25 μg/mL): Pass (receives a passing score (Pass) if the reactivity grade is not greater than grade 2 or a mild reactivity)
- Results Pass/Fail ([7]; 12.5 μg/mL): Pass (receives a passing score (Pass) if the reactivity grade is not greater than grade 2 or a mild reactivity)
- Results Pass/Fail ([7]; 25 μg/mL): Fail (a numerical grade greater than 2 is considered a cytotoxic effect, or a failing score (Fail))
- Results Pass/Fail ([7]; 1.563 (unit not given)): Pass (receives a passing score (Pass) if the reactivity grade is not greater than grade 2 or a mild reactivity)

SMILES: NCCCNCc1ccccc1 [CZ-4, N^1-benzylpropane-1,3-diamine]
- MIC [2, 9]: > 100 µM
- MIC ([4]; Table 5): > 100 µM
- MIC [5]: > 1200 µg/mL
